Laboratory results taken from ChEMBL document CHEMBL1123971, “Synthesis, platelet aggregation inhibitory activity, and in vivo antithrombotic activity of new 1,4-dihydropyridines” (J Med Chem, 1988).

How the values were obtained:
Felis catus [1] = assay: Effect of intraperitoneal infusion on systolic pressure in Anesthetized cats at a dose of 200 mg/kg at 90 min; format: functional
Felis catus [2] = assay: Effect of intraperitoneal infusion on systolic pressure in Anesthetized cats at a dose of 200 mg/kg at 165 min; format: functional
Felis catus [3] = assay: Effect of intravenous infusion on cardiac frequency in Anesthetized cats at a dose of 0.15 mg/kg at 1 min; format: functional, Heart
Felis catus [4] = assay: Effect of intravenous infusion on diastolic pressure in Anesthetized cats at a dose of 0.15 mg/kg at 1 min; format: functional
Felis catus [5] = assay: Effect of intraperitoneal infusion of compound on cardiac frequency in Anesthetized cats at a dose of 200 mg/kg at 60 min; format: functional, Heart
Oryctolagus cuniculus [6] = species on record: Oryctolagus cuniculus; assay: Effect on 35 mM K+-induced contraction on rabbit aorta at a dose of 3*10e-7 mol/L; format: functional
Felis catus [7] = assay: Effect of intravenous infusion on respiration frequency in Anesthetized cats at a dose of 0.30 mg/kg at 2 min; format: functional; settings: dose 0.3 mg/kg
Felis catus [8] = assay: Effect of intraperitoneal infusion on diastolic pressure in Anesthetized cats at a dose of 200 mg/kg at 150 min; format: functional
Felis catus [9] = assay: Effect of intraperitoneal infusion of compound on cardiac frequency in Anesthetized cats at a dose of 200 mg/kg at 135 min; format: functional, Heart
Felis catus [10] = assay: Effect of intraperitoneal infusion on diastolic pressure in Anesthetized cats at a dose of 200 mg/kg at 180 min; format: functional
Felis catus [11] = assay: Effect of intraperitoneal infusion on diastolic pressure in Anesthetized cats at a dose of 200 mg/kg at 75 min; format: functional
Cavia porcellus [12] = species on record: Cavia porcellus; assay: Chronotropic activity on left and right guinea pig artia (beats/min), at 45 min; format: functional
Oryctolagus cuniculus [13] = species on record: Oryctolagus cuniculus; assay: Effect on 35 mM K+-induced contraction on rabbit aorta at a dose of 10E-7 mol/L; format: functional
Felis catus [14] = assay: Effect of intraperitoneal infusion on respiration frequency in Anesthetized cats at a dose of 200 mg/kg at 135 min; format: functional
Felis catus [15] = assay: Effect of intraperitoneal infusion on respiration frequency in Anesthetized cats at a dose of 200 mg/kg at 75 min; format: functional
Felis catus [16] = assay: Effect of intravenous infusion on cardiac frequency in Anesthetized cats at a dose of 0.00 mg/kg at 0 min; format: functional, Heart
Felis catus [17] = assay: Effect of intraperitoneal infusion on diastolic pressure in Anesthetized cats at a dose of 200 mg/kg at 90 min; format: functional
Felis catus [18] = assay: Effect of intravenous infusion on respiration frequency in Anesthetized cats at a dose of 0 mg/kg at 0 min; format: functional
Felis catus [19] = assay: Effect of intraperitoneal infusion of compound on cardiac frequency in Anesthetized cats at a dose of 200 mg/kg at 165 min; format: functional, Heart
Felis catus [20] = assay: Effect of intraperitoneal infusion on respiration frequency in Anesthetized cats at a dose of 200 mg/kg at 45 min; format: functional
Felis catus [21] = assay: Effect of intravenous infusion on diastolic pressure in Anesthetized cats at a dose of 0.30 mg/kg at 2 min; format: functional; settings: dose 0.3 mg/kg
Felis catus [22] = assay: Effect of intravenous infusion on respiration frequency in Anesthetized cats at a dose of 0.15 mg/kg at 1 min; format: functional
Felis catus [23] = assay: Effect of intraperitoneal infusion of compound on cardiac frequency in Anesthetized cats at a dose of 200 mg/kg at 30 min; format: functional, Heart
Cavia porcellus [24] = species on record: Cavia porcellus; assay: Chronotropic activity on left and right guinea pig artia (beats/min), at 30 min; format: functional
Felis catus [25] = assay: Effect of intravenous infusion on diastolic pressure in Anesthetized cats at a dose of 0 mg/kg at 0 min; format: functional
Felis catus [26] = assay: Effect on respiration frequency in Anesthetized cats at a dose of 2.25 mg/kg at 15 min; format: functional
Felis catus [27] = assay: Effect of intravenous infusion on systolic pressure in Anesthetized cats at a dose of 0 mg/kg at 0 min; format: functional
Felis catus [28] = assay: Effect of intraperitoneal infusion on diastolic pressure in Anesthetized cats at a dose of 200 mg/kg at 120 min; format: functional
Cavia porcellus [29] = species on record: Cavia porcellus; assay: Chronotropic activity on left and right guinea pig artia (beats/min), at 180 min; format: functional
Felis catus [30] = assay: Effect of intravenous infusion on diastolic pressure in Anesthetized cats at a dose of 3.0 mg/kg at 20 min; format: functional
Felis catus [31] = assay: Effect of intraperitoneal infusion on respiration frequency in Anesthetized cats at a dose of 200 mg/kg at 30 min; format: functional
Felis catus [32] = assay: Effect of intraperitoneal infusion of compound on cardiac frequency in Anesthetized cats at a dose of 200 mg/kg at 0 min; format: functional, Heart
Felis catus [33] = assay: Effect of intraperitoneal infusion on diastolic pressure in Anesthetized cats at a dose of 200 mg/kg at 135 min; format: functional
Oryctolagus cuniculus [34] = species on record: Oryctolagus cuniculus; assay: Effect on 35 mM K+-induced contraction on rabbit aorta at a dose of 3*10e-6 mol/L; format: functional
Felis catus [35] = assay: Effect of intraperitoneal infusion on respiration frequency in Anesthetized cats at a dose of 200 mg/kg at 15 min; format: functional
Felis catus [36] = assay: Effect of intravenous infusion on cardiac frequency in Anesthetized cats at a dose of 0.75 mg/kg at 5 min; format: functional, Heart
Felis catus [37] = assay: Effect of intraperitoneal infusion on diastolic pressure in Anesthetized cats at a dose of 200 mg/kg at 105 min; format: functional
Felis catus [38] = assay: Effect of intravenous infusion on systolic pressure in Anesthetized cats at a dose of 0.30 mg/kg at 2 min; format: functional; settings: dose 0.3 mg/kg
Felis catus [39] = assay: Effect of intravenous infusion on diastolic pressure in Anesthetized cats at a dose of 1.50 mg/kg at 10 min; format: functional; settings: dose 1.5 mg/kg
Felis catus [40] = assay: Effect of intraperitoneal infusion of compound on cardiac frequency in Anesthetized cats at a dose of 200 mg/kg at 150 min; format: functional, Heart
Felis catus [41] = assay: Effect of intravenous infusion on diastolic pressure in Anesthetized cats at a dose of 2.25 mg/kg at 15 min; format: functional
Felis catus [42] = assay: Effect of intraperitoneal infusion of compound on cardiac frequency in Anesthetized cats at a dose of 200 mg/kg at 180 mins; format: functional, Heart
Felis catus [43] = assay: Effect of intravenous infusion on respiration frequency in Anesthetized cats at a dose of 1.50 mg/kg at 10 min; format: functional; settings: dose 1.5 mg/kg
Felis catus [44] = assay: Effect of intraperitoneal infusion on systolic pressure in Anesthetized cats at a dose of 200 mg/kg at 135 min; format: functional
Felis catus [45] = assay: Effect of intraperitoneal infusion on systolic pressure in Anesthetized cats at a dose of 200 mg/kg at 120 min; format: functional
Felis catus [46] = assay: Effect of intravenous infusion on systolic pressure in Anesthetized cats at a dose of 0.75 mg/kg at 5 min; format: functional
Felis catus [47] = assay: Effect of intraperitoneal infusion on diastolic pressure in Anesthetized cats at a dose of 200 mg/kg at 165 min; format: functional

CCO/C(O)=C1\C(C)=NC(C)=C(C(=O)OCCN2C(=O)c3ccccc3S2(=O)=O)C1C (stereo not given)
Arterial pressure (Felis catus [1]): 138 mmHg | Arterial pressure (Felis catus [2]): 142 mmHg | Cardiac frequency (Felis catus [3]): 190 beats min-1 | Arterial pressure (Felis catus [4]): 115 mmHg | Cardiac frequency (Felis catus [5]): 256 beats min-1 | Inhibition (Oryctolagus cuniculus [6]): 23.89% | Respiratory frequency (Felis catus [7]): 18 r.p.m. | Arterial pressure (Felis catus [8]): 80 mmHg | Cardiac frequency (Felis catus [9]): 271 beats min-1 | Arterial pressure (Felis catus [10]): 80 mmHg | Arterial pressure (Felis catus [11]): 90 mmHg | Beats/min (Cavia porcellus [12]): 138 | Control (Cavia porcellus [12]): 100.4% | Inhibition (Oryctolagus cuniculus [13]): 12.6% | Respiratory frequency (Felis catus [14]): 15 r.p.m. | Respiratory frequency (Felis catus [15]): 12 r.p.m. | Cardiac frequency (Felis catus [16]): 190 beats min-1 | Arterial pressure (Felis catus [17]): 85 mmHg | Respiratory frequency (Felis catus [18]): 18 r.p.m. | Cardiac frequency (Felis catus [19]): 278 beats min-1 | Respiratory frequency (Felis catus [20]): 14 r.p.m. | Arterial pressure (Felis catus [21]): 115 mmHg | Respiratory frequency (Felis catus [22]): 18 r.p.m. | Cardiac frequency (Felis catus [23]): 245 beats min-1 | Beats/min (Cavia porcellus [24]): 138 | Control (Cavia porcellus [24]): 100.7% | Arterial pressure (Felis catus [25]): 115 mmHg | Respiratory frequency (Felis catus [26]): 19 r.p.m. | Arterial pressure (Felis catus [27]): 165 mmHg | Arterial pressure (Felis catus [28]): 85 mmHg | Beats/min (Cavia porcellus [29]): 130 | Control (Cavia porcellus [29]): 94.9% | Arterial pressure (Felis catus [30]): 160 mmHg | Respiratory frequency (Felis catus [31]): 13 r.p.m. | Cardiac frequency (Felis catus [32]): 260 beats min-1 | Arterial pressure (Felis catus [33]): 80 mmHg | Inhibition (Oryctolagus cuniculus [34]): 71.3% | Respiratory frequency (Felis catus [35]): 14 r.p.m. | Cardiac frequency (Felis catus [36]): 195 beats min-1 | Arterial pressure (Felis catus [37]): 87 mmHg | Arterial pressure (Felis catus [38]): 165 mmHg | Arterial pressure (Felis catus [39]): 110 mmHg | Cardiac frequency (Felis catus [40]): 265 beats min-1 | Arterial pressure (Felis catus [41]): 110 mmHg | Cardiac frequency (Felis catus [42]): 276 beats min-1 | Respiratory frequency (Felis catus [43]): 18 r.p.m. | Arterial pressure (Felis catus [44]): 140 mmHg | Arterial pressure (Felis catus [45]): 145 mmHg | Arterial pressure (Felis catus [46]): 162 mmHg | Arterial pressure (Felis catus [47]): 80 mmHg
